The source made the active and inactive calls.
Tests used:
[1] = microbe, parasite or virus in culture; format: functional; settings: Mycobacterium tuberculosis
[2] = biological target: T1, Mannose-6-phosphate isomerase (Homo sapiens, UniProt P34949); assay: MPI inhibition at elevated mannose 6-phosphate – biochemical, fluorescence intensity, high mannose 6-phosphate, primary screen (AID 1220)
T1 sequence (P34949 whole entry): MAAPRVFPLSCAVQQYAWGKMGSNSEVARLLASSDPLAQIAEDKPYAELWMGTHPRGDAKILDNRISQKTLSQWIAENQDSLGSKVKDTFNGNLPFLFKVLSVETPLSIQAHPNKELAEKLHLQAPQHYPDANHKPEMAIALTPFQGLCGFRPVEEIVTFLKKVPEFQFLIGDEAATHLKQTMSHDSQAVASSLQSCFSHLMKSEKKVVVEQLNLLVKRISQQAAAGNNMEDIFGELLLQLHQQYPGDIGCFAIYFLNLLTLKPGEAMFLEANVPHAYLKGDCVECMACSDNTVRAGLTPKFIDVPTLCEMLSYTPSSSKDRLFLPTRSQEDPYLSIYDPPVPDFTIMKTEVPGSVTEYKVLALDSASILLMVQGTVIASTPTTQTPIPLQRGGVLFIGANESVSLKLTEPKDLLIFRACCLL

[3] = cells; format: functional
[4] = biological target: FAD-linked sulfhydryl oxidase ALR (Homo sapiens, UniProt P55789); assay: ALR-catalysed DTT oxidation blockers – biochemical, H2O2 detection, luminescence, cherry-pick, dose response (AID 493248)
[5] = viability loss in HepG2 hepatoma cells – cell-based, ATP luminescence, cherry-pick, activator set 2, cytotoxicity control, dose response (AID 1053143); format: functional
[6] = biological target: Kallikrein-7 (Homo sapiens, UniProt P49862); assay: Fluorescence Intensity-based biochemical primary high throughput dose response assay to identify activators of kallikrein-7 (K7) zymogen.
[7] = test system: Streptococcus sp. 'group A'; assay: Streptococcus pyogenes SK(-)GAS viability under kanamycin – luminescence, BacTiterGlo, confirmation, counter-screen for streptokinase expression inhibitor project, dose response (AID 1900); format: functional, organism-based
[8] = biological target: T2, Streptokinase A (Streptococcus pyogenes serotype M1, UniProt P10520); assay: viability-normalized secreted streptokinase activity reduction – plasminogen activation absorbance, OD405, dose response (AID 1914); format: functional, Streptococcus pyogenes M1 GAS;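 also: secreted streptokinase activity via plasminogen activation per viability signal from cell pellet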
T2 sequence (P10520 whole entry): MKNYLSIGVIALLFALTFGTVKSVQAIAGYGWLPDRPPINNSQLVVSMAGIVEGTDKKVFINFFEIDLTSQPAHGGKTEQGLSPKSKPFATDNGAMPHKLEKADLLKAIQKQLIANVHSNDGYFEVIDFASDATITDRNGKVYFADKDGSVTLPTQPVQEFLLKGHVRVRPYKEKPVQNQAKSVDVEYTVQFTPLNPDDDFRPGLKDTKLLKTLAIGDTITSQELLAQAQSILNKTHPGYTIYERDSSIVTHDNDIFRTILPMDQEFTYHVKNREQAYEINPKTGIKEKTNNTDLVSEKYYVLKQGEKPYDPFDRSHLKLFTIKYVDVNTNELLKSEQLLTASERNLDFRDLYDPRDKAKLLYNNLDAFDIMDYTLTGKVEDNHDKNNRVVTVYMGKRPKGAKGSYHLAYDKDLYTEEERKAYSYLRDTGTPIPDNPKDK

[9] = Trypanosoma cruzi growth suppression in host cells – NIH3T3 host cells, beta-gal luminescence, confirmation (AID 2044); format: functional, cell-based;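 also: intracellular parasites grown in NIH/3T3 mouse fibroblasts as host cells; luminescent beta-galactosidase reporter signal from transgenic T. cruzi replicating inside host cells; inhibitors lower the luminescence signal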
[10] = viability of PTEN-deleted HCT116 cells – cell-based, HCT116 PTEN knockout, dose response (AID 1047); format: functional;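 also: HCT116 colon tumor cells with PTEN knocked out; cells exposed to compound for 60 hours before readout; potency for loss of cell viability measured by luminescence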
[11] = NIH3T3 cell viability loss – ATP luminescence, mouse fibroblasts, counter-screen, dose response (AID 2010); format: functional, cell-based;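 also: cells exposed to compound for about 90 hours before reading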
[12] = viability of HCT116 lacking mutant beta-catenin – cell-based, human colon tumor, dose response (AID 1045); format: functional;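 also: HCT116 colon tumor cells with beta catenin knocked out; cells exposed to compound for 60 hours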
[13] = test system: Streptococcus; assay: GAS UMAA2166 growth inhibition – luminescence, BacTiterGlo, counter-screen for streptokinase expression inhibitor project, dose response (AID 1915); format: functional, organism-based;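 also: potency for reduction of bacterial viability or growth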
[14] = biological target: T3, Replicative DNA helicase DnaB (Mycobacterium tuberculosis, UniProt P9WMR3); assay: DnaB intein splicing inhibitors, dose response, biochemical, cell-free fluorescence (AID 449749); format: functional
T3 sequence (P9WMR3 whole entry): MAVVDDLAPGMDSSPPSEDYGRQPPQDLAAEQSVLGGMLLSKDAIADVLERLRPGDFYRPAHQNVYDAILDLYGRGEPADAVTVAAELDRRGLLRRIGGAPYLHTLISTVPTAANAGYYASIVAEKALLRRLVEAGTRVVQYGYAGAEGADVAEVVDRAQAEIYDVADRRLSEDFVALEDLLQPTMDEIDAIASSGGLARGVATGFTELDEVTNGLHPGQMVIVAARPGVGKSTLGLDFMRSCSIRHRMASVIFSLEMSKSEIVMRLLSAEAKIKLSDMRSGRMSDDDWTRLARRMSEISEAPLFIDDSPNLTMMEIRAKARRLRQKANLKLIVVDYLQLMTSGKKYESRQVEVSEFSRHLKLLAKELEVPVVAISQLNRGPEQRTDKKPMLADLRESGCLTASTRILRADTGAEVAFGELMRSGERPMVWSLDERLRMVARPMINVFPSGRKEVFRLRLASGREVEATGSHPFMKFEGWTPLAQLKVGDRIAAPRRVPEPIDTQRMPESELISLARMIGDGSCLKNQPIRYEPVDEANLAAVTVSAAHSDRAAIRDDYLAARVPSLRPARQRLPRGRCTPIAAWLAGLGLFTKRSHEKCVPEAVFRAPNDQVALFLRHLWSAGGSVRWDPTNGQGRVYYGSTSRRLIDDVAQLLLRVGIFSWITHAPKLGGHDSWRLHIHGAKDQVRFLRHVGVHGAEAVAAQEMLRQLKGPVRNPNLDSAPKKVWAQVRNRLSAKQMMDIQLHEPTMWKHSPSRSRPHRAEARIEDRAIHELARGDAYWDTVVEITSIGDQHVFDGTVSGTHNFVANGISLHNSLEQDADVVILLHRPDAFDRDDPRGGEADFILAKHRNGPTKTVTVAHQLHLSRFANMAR

[15] = biological target: Heat shock protein HSP 90-alpha (Homo sapiens, UniProt P07900); format: functional, organism-based
[16] = test system: Vero; assay: viability of Vero cells under compound – cytotoxicity control for flavivirus capping enzyme inhibitors (AID 588742); format: functional; settings: Chlorocebus sabaeus
[17] = biological target: T4, Protein RecA (Mycobacterium tuberculosis, UniProt P9WHJ3); assay: Fluorescence Cell-Free Homogeneous Dose Retest to Identify Inhibitors of RecA-Intein Splicing Activity. [Related pubchem assays (depositor defined):AID2097, AID2223, AID489010, AID492950]; format: functional
T4 sequence (P9WHJ3 whole entry): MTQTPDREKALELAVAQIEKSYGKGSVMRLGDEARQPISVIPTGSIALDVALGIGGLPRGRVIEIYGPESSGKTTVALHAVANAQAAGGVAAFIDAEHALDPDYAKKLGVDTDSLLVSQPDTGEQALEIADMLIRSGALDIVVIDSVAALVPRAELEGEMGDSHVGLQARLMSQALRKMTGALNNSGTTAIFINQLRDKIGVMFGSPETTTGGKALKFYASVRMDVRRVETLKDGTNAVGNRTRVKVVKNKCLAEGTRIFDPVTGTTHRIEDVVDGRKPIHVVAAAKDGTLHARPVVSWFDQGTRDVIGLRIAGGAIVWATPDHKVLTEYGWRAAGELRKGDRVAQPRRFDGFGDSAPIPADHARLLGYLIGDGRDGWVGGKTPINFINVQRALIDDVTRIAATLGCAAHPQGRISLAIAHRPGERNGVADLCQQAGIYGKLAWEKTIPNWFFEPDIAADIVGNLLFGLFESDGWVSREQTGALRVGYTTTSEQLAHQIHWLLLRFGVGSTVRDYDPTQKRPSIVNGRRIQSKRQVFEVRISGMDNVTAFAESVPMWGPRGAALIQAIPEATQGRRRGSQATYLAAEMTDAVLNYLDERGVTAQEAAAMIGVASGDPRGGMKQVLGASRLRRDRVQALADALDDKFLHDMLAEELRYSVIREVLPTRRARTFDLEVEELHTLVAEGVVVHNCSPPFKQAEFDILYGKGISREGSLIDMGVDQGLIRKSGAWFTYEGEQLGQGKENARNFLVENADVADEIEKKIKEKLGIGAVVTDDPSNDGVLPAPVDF

[18] = test system: INS1; assay: INS-1E survival protection against cytokine death – cell-based, luminescence, retest, dose response (AID 449756); format: functional; settings: Rattus norvegicus, INS1;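 also: cell death triggered by IL-1 beta plus TNF-alpha plus IFN-gamma mixture; protective hits raise ATP signal compared with cytokine alone wells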
[19] = reduced cellular PGC1a acetyl-lysine signal – cell-based, cherry-picked samples, dose response (AID 720514); format: functional;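 also: potency may reflect raised or lowered acetylation signal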
[20] = general mammalian cell viability loss – inhibitor set, cherry-pick, set 2, cytotoxicity control for miR-122 modulator project, dose response (AID 720697); format: functional, cell-based
[21] = growth inhibition of yeast DHODH-expressing 3D7 parasites – SYBR Green, dry powder samples, dose response (AID 1159570); format: functional, cell-based;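 also: parasite growth measured after 72 hours of compound exposure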
[22] = toxicity to human HepG2 hepatoma cells – cell-based, plate reader, dry powder samples, cytotoxicity control, dose response (AID 1159569); format: functional;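 also: inhibitor potency with signal falling toward the positive control level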
[23] = Dd2 parasite growth inhibition in erythrocytes – SYBR Green, dry powder samples, set 9, dose response (AID 1159568); format: functional, cell-based
[24] = P. falciparum Dd2 growth inhibitors, dose response, SYBR Green, cherry-picked samples (AID 1159567); format: functional, cell-based
[25] = Dd2 malaria parasite growth inhibition potency – SYBR Green, dry powder samples, dose response (AID 1159566); format: functional, cell-based;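 also: potency for growth inhibition with lower SYBR green DNA signal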
[26] = growth inhibition of PfATP4-mutant resistant parasites – NITD609-resistant line, SYBR Green, dry powder, dose response (AID 1159571); format: functional, cell-based;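 also: parasites synchronized at ring stage by sorbitol before testing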
[27] = test system: Vero; assay: cells; format: functional; settings: Chlorocebus sabaeus
[28] = biological target: Photoreceptor-specific nuclear receptor (Homo sapiens, UniProt Q9Y5X4); format: functional, cell-based;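 also: CHO-S cells with Gal4-NCOR and VP16-NR2E3 two-hybrid luciferase reporter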
[29] = blockers of HIV-1 envelope-mediated cell-cell fusion – cherry-pick, dose response (AID 652057); format: functional, cell-based
[30] = viability loss in CEM21 cells – cell-based, CellTiter-Glo luminescence, cherry-picked, cytotoxicity control for viral fusion inhibitor project, dose response (AID 652042); format: functional;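 also: potency for signal decrease meaning cytotoxicity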
[31] = blockers of HIV-1 ZM109 envelope-driven cell-cell fusion – HeLa effector, CEM target cells, luciferase, cherry-pick, dose response (AID 652058); format: functional, cell-based;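 also: luciferase signal from HIV-1 Env mediated cell-cell fusion of effector and target cells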
[32] = off-target signal loss in HeLa-CEM21 co-culture – HeLa F-luc CTL cells, cherry-picked, counter-screen for HIV-1 Env fusion inhibitor project, dose response (AID 652040); format: functional, cell-based;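 also: potency for signal decrease marking cytotoxic or nonspecific inhibition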
[33] = HIV-1 AD8 envelope cell-cell fusion blockers – cherry-pick, dose response (AID 652062); format: functional, cell-based;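 also: luciferase signal from cell-cell fusion driven by HIV-1 clade B AD8 Env; potency is for inhibitors of fusion seen as a drop in luminescence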

Chain of Kallikrein-7 (P49862 whole entry): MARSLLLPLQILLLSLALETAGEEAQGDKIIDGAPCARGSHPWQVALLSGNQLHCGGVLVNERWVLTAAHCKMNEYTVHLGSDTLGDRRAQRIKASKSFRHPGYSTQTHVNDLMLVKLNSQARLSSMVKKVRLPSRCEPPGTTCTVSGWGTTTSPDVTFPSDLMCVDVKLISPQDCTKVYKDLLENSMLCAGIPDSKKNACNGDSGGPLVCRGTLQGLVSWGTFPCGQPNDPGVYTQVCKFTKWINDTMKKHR
Chain of FAD-linked sulfhydryl oxidase ALR (P55789 whole entry): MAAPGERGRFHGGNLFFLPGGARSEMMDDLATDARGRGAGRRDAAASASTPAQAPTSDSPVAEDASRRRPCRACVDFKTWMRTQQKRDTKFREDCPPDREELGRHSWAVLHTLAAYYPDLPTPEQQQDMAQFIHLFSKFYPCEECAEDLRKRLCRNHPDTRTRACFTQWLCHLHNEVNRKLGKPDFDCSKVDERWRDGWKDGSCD
Chain of Photoreceptor-specific nuclear receptor (Q9Y5X4 whole entry, the tested form may be a part): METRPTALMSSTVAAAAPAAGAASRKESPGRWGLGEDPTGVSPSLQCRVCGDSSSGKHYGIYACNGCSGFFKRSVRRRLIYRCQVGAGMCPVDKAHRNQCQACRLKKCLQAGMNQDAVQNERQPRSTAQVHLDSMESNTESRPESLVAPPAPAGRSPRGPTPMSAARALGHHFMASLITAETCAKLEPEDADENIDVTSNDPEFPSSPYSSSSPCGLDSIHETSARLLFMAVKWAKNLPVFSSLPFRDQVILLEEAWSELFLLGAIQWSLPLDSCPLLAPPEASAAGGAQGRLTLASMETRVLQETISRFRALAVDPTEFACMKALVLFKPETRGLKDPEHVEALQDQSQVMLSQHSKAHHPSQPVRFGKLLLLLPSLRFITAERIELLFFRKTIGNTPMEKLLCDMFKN

Cc1cc(=O)n2cccc(O)c2n1
CC50 [1]: > 40 µM (active)
IC50 [2]: 22.9 µM (active)
IC50 [3]: 9.19 µM (active)

Cc1ccc(Nc2nc(-c3ccc(O)cc3O)cs2)nc1
AC50 [4]: 0.288 µM (active)
AC50 [5]: 26 µM (active)

N#Cc1c(N2CCOCC2)nc(N)c2c(N)nc3c(c12)CC(CCl)O3 (configuration not stated)
EC50 [6]: > 69.5 µM (inactive)

O=C(c1ccc2c3n(nc2c1)-c1ccc(Cl)cc1CO3)N1CCCCC1
AC50 [5]: 26 µM (active)

Cc1nn(-c2ccccc2)c2c1cc1c(=O)n(C)c(=O)nc-1n2-c1ccccc1F
EC50 [6]: 52.9 µM (inactive)

CC(=O)C1=C(c2ccc(Br)cc2)C(=O)c2ccccc2C1=O
EC50 [7]: 1 µM (active)
EC50 [8]: 7.12 µM (active)
EC50 [9]: 2.01 µM (active)
EC50 [10]: 1.98 µM (active)
EC50 [11]: 2.42 µM (active)
EC50 [12]: 1.81 µM (active)
EC50 [13]: 9.4 µM (active)
IC50 [2]: 3.13 µM (active)
AC50 [14]: 3.05 µM (active)
AC50 [15]: 7.99 µM (active)
CC50 [16]: 9.68 µM (active)
EC50 [17]: 1.94 µM (active)
AC50 [18]: 1.06 µM (active)

CCCCn1c(Cc2ccccc2)nnc1SCC(=O)Nc1cc(C)on1
IC50 [2]: > 50 µM (not active)

O=C(NC1CCCCCCC1O)c1ccccc1 (configuration not stated)
AC50 [19]: 35.4 µM (active)

CS(=O)(=O)Nc1ccc(-c2cnc3cccnn23)cc1
EC50 [6]: 24.1 µM (inactive)

C[C@H](CO)N1C[C@H](C)[C@H](CN(C)C(=O)C2CCC2)Oc2cc(-c3ccc(C(=O)N(C)C)cc3)ccc2S1(=O)=O
AC50 [20]: 9.74 µM (active)

O=C1C=CCCN1C(=O)/C=C/c1cccc(Br)c1
AC50 [19]: 0.949 µM (active)

CC(C)C(=O)Nc1ccc2c(c1)C(=O)N(C)[C@H]1CC[C@H](CC(=O)O)O[C@H]1CO2
AC50 [20]: 0.437 µM (active)

O=C1C=CCCN1S(=O)(=O)/C=C/c1ccccc1
AC50 [19]: 1.19 µM (active)

C[C@H](CO)N1C[C@H](C)[C@H](CN(C)C(=O)C2CCCCC2)Oc2ncc(C#Cc3cccc(F)c3)cc2C1=O
AC50 [21]: 0.848 µM (active)
AC50 [22]: 49.1 µM (active)
AC50 [23]: 0.269 µM (active)
AC50 [24]: 1.39 µM (active)
AC50 [25]: 0.408 µM (active)
AC50 [26]: 0.725 µM (active)

O=C(Nc1ccccc1F)N1CCCCN2[C@H](CO)[C@H](c3ccc(/C=C/c4ccccc4)cc3)[C@@H]2C1
AC50 [23]: 12 µM (active)

CN(C)c1ncnc2c1ccn2C1OC(CO)C(O)C1O (configuration not stated)
CC50 [27]: > 25 µM (active)
IC50 [28]: 1.45 µM (active)
AC50 [29]: 4.51 µM (active)
AC50 [30]: 1.39 µM (active)
AC50 [31]: 3.41 µM (active)
AC50 [32]: 1.9 µM (active)
AC50 [33]: 1.89 µM (active)

Source: ChEMBL document CHEMBL1201862, “PubChem BioAssay data set” (2004)
